# US20100152156A1, “2-Azetidinone Derivatives For The Treatment Of Hyperlipidaemic Diseases” (ASTRAZENECA AB, priority 2005, published 2010)
# Legend:
# [1] = Absorption in a Caco-2 cells model; type: in vitro ADME; settings: human
# Protocol: Absorption of the compounds of formula (I) was tested in a Caco-2 cells model (Gastroenterology 1989, 96, 736): […]
# [2] = system: ^14C-cholesterol absorption; assay: In vivo testing of cholesterol absorption inhibitors (A); settings: procedure A, C57BL/6 female mice
# Protocol: In Vivo Testing of Cholesterol Absorption Inhibitors (A)
# C57BL/6 female mice were maintained on regular chow diet and housed in individual cages to collect faeces. Mice were fasted for 3 hours and then gavaged with vehicle or compound. Half an hour later the mice were gavaged with radiolabelled cholesterol. Six hours after the ^14C-cholesterol gavage blood samples were taken via the tail and plasma prepared to determine how much cholesterol were absorbed. 24 hours after the gavage of ^14C-cholesterol the mice were bled and plasma were prepared for analysis. Faeces were collected for 24 hours to assess absorption efficiency.
SMILES,Papp [1],inhibition of ^14C-cholesterol absorption ([2]; administration of 0.2 mmol/kg by gavage),inhibition of ^14C-cholesterol absorption ([2]; administration of 0.2 μmol/kg by gavage)
"CC(C)(C)[C@@H](NC(=O)CNC(=O)COc1ccc([C@@H]2[C@@H](SCC(O)c3ccc(F)cc3)C(=O)N2c2ccc(F)cc2)cc1)C(=O)NCC(=O)O (single isomer, unassigned) [Example 6, N-{[4-((2R,3R)-1-(4-fluorophenyl)-3-{[(2R or S)-2-(4-fluorophenyl)-2-hydroxyethyl]thio}-4-oxoazetidin-2-yl)phenoxy]acetyl}glycyl-3-methyl-D-valylglycine]",1.2 nm/s,49%,–
"CC(C)(C)[C@@H](NC(=O)CNC(=O)COc1ccc([C@@H]2[C@@H](SCC(O)c3ccc(F)cc3)C(=O)N2c2ccc(F)cc2)cc1)C(=O)N[C@H](CO)C(=O)O (single isomer, unassigned) [Example 7, N-{[4-((2R,3R)-1-(4-fluorophenyl)-3-{[(2R or S)-2-(4-fluorophenyl)-2-hydroxyethyl]thio}-4-oxoazetidin-2-yl)phenoxy]acetyl}glycyl-3-methyl-D-valyl-D-serine]",–,–,46%
